Test results taken from ChEMBL document CHEMBL1201862, “PubChem BioAssay data set” (2004).
Activity calls are given as the source filed them.

Experiments:
Cytochrome P450 2C9 = Cytochrome P450 2C9 (Homo sapiens, UniProt P11712)
Cytochrome P450 2C19 = Cytochrome P450 2C19 (Homo sapiens, UniProt P33261); assay: Cytochrome panel assay with activity outcomes. Panel member name: p450-cyp2c19 Compounds with AC50 equal or less than 10 uM are considered active; type: functional
Cytochrome P450 2D6 = Cytochrome P450 2D6 (Homo sapiens, UniProt P10635);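 note: CYP2D6 member of a cytochrome P450 panel assay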
Cytochrome P450 2D6, sequence (P10635 whole entry): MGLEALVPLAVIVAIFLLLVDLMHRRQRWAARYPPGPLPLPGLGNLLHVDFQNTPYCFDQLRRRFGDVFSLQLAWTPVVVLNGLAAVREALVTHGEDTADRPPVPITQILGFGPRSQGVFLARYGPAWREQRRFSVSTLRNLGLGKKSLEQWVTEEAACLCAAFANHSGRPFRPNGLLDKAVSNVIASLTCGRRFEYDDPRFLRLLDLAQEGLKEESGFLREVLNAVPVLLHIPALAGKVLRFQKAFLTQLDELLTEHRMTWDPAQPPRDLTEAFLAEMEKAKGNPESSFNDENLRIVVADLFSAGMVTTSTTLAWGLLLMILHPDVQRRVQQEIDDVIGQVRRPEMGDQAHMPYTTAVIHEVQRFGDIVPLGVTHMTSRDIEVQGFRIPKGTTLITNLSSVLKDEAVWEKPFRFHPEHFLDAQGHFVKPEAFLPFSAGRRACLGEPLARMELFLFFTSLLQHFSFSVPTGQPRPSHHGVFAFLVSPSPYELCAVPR

Cytochrome P450 3A4 = Cytochrome P450 3A4 (Homo sapiens, UniProt P08684);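 note: CYP3A4 tested as one member of a cytochrome P450 panel screen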
Cytochrome P450 3A4, sequence (P08684 whole entry): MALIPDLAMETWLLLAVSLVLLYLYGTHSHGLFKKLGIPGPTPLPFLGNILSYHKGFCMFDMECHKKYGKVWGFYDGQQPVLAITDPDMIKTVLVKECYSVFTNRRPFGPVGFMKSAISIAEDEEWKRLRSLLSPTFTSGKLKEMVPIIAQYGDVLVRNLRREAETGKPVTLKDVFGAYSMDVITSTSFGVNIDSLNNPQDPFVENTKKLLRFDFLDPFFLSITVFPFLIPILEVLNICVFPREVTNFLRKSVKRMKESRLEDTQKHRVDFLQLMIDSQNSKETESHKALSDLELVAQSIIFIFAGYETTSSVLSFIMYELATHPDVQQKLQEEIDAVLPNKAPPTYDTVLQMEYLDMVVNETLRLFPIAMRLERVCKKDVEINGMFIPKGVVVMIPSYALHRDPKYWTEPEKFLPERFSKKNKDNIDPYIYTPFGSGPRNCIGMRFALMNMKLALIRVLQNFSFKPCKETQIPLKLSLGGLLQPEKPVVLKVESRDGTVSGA

[1] = tested on: Streptococcus sp. 'group A'; assay: Streptococcus pyogenes SK(-)GAS viability under kanamycin – luminescence, BacTiterGlo, confirmation, counter-screen for streptokinase expression inhibitor project, dose response (AID 1900); type: functional, organism-based
Streptococcus = assay: GAS UMAA2166 growth inhibition – luminescence, BacTiterGlo, counter-screen for streptokinase expression inhibitor project, dose response (AID 1915); type: functional, organism-based;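 note: potency for reduction of bacterial viability or growth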
[2] = Trypanosoma cruzi growth suppression in host cells – NIH3T3 host cells, beta-gal luminescence, confirmation (AID 2044); type: functional, cell-based;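 note: intracellular parasites grown in NIH/3T3 mouse fibroblasts as host cells; luminescent beta-galactosidase reporter signal from transgenic T. cruzi replicating inside host cells; inhibitors lower the luminescence signal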
[3] = NIH3T3 cell viability loss – ATP luminescence, mouse fibroblasts, counter-screen, dose response (AID 2010); type: functional, cell-based;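 note: cells exposed to compound for about 90 hours before reading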

Cytochrome P450 2C19, sequence (P33261 whole entry): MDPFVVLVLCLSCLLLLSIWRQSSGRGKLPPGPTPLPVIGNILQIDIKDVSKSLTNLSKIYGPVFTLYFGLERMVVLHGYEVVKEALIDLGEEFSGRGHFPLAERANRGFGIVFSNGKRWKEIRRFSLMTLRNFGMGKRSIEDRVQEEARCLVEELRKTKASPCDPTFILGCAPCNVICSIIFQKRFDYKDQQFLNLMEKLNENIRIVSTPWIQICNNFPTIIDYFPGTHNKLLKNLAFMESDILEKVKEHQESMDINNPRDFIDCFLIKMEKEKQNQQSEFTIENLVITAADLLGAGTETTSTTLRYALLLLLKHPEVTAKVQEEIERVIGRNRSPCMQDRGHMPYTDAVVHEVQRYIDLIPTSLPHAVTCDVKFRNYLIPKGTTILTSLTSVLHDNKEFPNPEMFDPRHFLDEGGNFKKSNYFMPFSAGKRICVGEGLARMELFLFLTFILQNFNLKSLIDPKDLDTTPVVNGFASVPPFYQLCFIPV
Cytochrome P450 2C9, sequence (P11712 whole entry): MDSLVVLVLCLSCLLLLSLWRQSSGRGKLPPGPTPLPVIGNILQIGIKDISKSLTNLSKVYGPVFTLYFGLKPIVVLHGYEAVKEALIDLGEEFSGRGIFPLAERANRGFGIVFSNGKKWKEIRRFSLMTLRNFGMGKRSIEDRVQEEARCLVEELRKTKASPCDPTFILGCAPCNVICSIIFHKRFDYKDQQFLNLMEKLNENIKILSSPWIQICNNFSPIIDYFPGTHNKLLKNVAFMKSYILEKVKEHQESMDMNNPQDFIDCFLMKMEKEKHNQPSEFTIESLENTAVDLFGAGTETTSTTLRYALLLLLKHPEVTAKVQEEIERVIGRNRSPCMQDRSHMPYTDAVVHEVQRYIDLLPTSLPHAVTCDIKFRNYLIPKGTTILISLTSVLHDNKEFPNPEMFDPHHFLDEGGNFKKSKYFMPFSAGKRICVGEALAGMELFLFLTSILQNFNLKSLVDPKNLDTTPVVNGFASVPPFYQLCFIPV

Row | SMILES | AC50 (Cytochrome P450 2C9) | AC50 (Cytochrome P450 2C19; read-out: AC50) | AC50 (Cytochrome P450 3A4) | also measured
1 | COc1ccc(C(=O)c2c[nH]c(C(=O)NCc3cccs3)c2)cc1 | 0.251 µM (inconclusive) | – | – | –
2 | CCN(CC)CCNC(=O)Cn1nc(-c2ccc(C)cc2)ccc1=O | – | – | – | AC50 (Cytochrome P450 2C19): inconclusive; AC50 (Cytochrome P450 2D6): 22.4 µM (inconclusive)
3 | N=c1nc(N)nc(N)n1-c1ccc(S(N)(=O)=O)cc1 | – | – | – | AC50 (Cytochrome P450 2D6): 3.98 µM (inconclusive)
4 | Cc1cc(-c2cc(C)c(O)c(C(C)(C)C)c2)cc(C(C)(C)C)c1O | 5.01 µM (inconclusive) | – | – | –
5 | CCCCNC(=O)C1CC(=O)N(c2ccc(OC)cc2)C1c1ccc(OC)cc1 (stereo unspecified) | 25.1 µM (inconclusive) | 25.1 µM (inconclusive) | – | AC50 (Cytochrome P450 2D6): 15.8 µM (inconclusive)
6 | C/C(CCN1CCCCc2nc(C)c(C)cc21)=N\OC[C@@H](C)[C@H](OCc1ccccc1)C(C)C | – | – | 3.16 µM (inconclusive) | –
7 | CCCc1ccc(Oc2cc(C)nc(N3CCOCC3)n2)cc1 | – | – | – | AC50 (Cytochrome P450 2D6): 14.1 µM (inconclusive)
8 | Cc1ccc(S(=O)(=O)N(C)CC(=O)ONC(=N)c2ccccn2)cc1 | – | – | 22.4 µM (inconclusive) | AC50 (Cytochrome P450 2C19): inconclusive
9 | Cc1cc(-c2cccs2)nc(-n2cccc2)n1 | – | 5.62 µM (inconclusive) | 31.6 µM (inconclusive) | –
10 | CO[C@H]1COC(=O)[C@@H](Cc2ccccc2)NC(=O)[C@@H](C)COC(=O)C/C=C\[C@@H]1C | – | – | 6.31 µM (inconclusive) | –
11 | O=C(NCCc1ccccc1)C(=O)NN=C1CCCC1 | – | 0.355 µM (inconclusive) | 31.6 µM (inconclusive) | –
12 | CC(=O)OCC1=C(C(=O)O)N2C(=O)C(NC(=O)C(C)Cn3nc(C)c(Cl)c3C)C2SC1 (stereo unspecified) | – | – | – | EC50 [1]: 3.56 µM (active); EC50 (Streptococcus): 5.07 µM (active)
13 | Cc1cc(Nc2ccc(Cl)cc2)nc(N)n1 | – | 8.91 µM (inconclusive) | 5.62 µM (inconclusive) | –
14 | O=c1c(-c2ccc(F)cc2)nc2cnc(N3CCNCC3)nc2n1Cc1ccc(F)cc1 | 31.6 µM (inconclusive) | 39.8 µM (inconclusive) | – | AC50 (Cytochrome P450 2D6): 20 µM (inconclusive)
15 | O=C1C=C(Nc2nc(C(=O)O)cc(=O)[nH]2)c2ccccc2C1=O | – | 3.16 µM (inconclusive) | – | –
16 | Cc1nc(-c2ccccn2)nc(N(C)c2ccccc2)c1Cl | – | – | – | EC50 [2]: 3.26 µM (active); EC50 [3]: > 60 µM (not active)
17 | CCCc1nn2c(O)c(C(c3ccc(C)cc3)c3c(O)n4nc(CCC)sc4nc3=O)c(=O)nc2s1 | 12.6 µM (inconclusive) | – | – | –
18 | CCOC(=O)Cn1nnc2c(sc3nc4c(c(-c5ccc(Cl)cc5)c32)CCC4)c1=O | – | 7.08 µM (inconclusive) | – | –
19 | N#Cc1cccc(-c2nc(N3CCNCC3)c3ccccc3n2)c1 | – | – | – | AC50 (Cytochrome P450 2D6): 39.8 µM (inconclusive)
20 | COc1ccccc1N1CCN(C(=O)c2ccc3[nH]c4c(c3c2)CC(C)CC4)CC1 (stereo unspecified) | – | – | – | EC50 [2]: 2 µM (active); EC50 [3]: > 60 µM (not active)
21 | COC(=O)[C@@]1(Cc2ccc(OC)cc2)[C@H]2c3cc(C(=O)N4CCCC4)n(C[C@H](O)CO)c3C[C@H]2CN1C(=O)c1ccccc1 | 31.6 µM (inconclusive) | 39.8 µM (inconclusive) | – | –
22 | COc1cccc(Cn2c(=O)c(-c3cccc(C#N)c3)nc3cnc(N4CCN(C)CC4)nc32)c1 | – | – | 25.1 µM (inconclusive) | –
23 | O=S(=O)(N=C(Nc1ccccn1)c1ccccc1)c1ccc(Cl)cc1 | 11.2 µM (inconclusive) | – | 1.41 µM (inconclusive) | –
24 | CO[C@H]1C=CO[C@@]2(C)Oc3c(C)c(O)c4c(O)c(c5c(c4c3C2=O)=NC2(CCN(CC(C)C)CC2)N=5)NC(=O)C(C)=CC=C[C@H](C)[C@H](O)[C@@H](C)[C@@H](O)[C@@H](C)[C@H](OC(C)=O)[C@@H]1C | – | – | – | EC50 [1]: < 0.06 µM (active); EC50 (Streptococcus): < 0.06 µM (active)
25 | COc1ccc(C=O)cc1COc1ccc(C)cc1[N+](=O)[O-] | 4.47 µM (inconclusive) | – | – | AC50 (Cytochrome P450 2D6): 14.1 µM (inconclusive)
26 | O=C(Nc1cc(Sc2ccccn2)cc([N+](=O)[O-])c1)c1ccc([N+](=O)[O-])cc1 | 10 µM (inconclusive) | 5.01 µM (inconclusive) | 7.94 µM (inconclusive) | –
27 | CC(NCC(O)COC1CCC(C(C)(C)C)CC1)c1ccccc1 (stereo unspecified) | – | – | – | EC50 [2]: 0.114 µM (active); EC50 [3]: > 60 µM (not active)
28 | N#CCCn1c(=O)c(-c2ccccc2)nc2cnc(OCc3ccccc3)nc21 | – | 39.8 µM (inconclusive) | 7.94 µM (inconclusive) | –
29 | CCCCCOc1ccc(Cn2ccnc2)cc1[N+](=O)[O-] | – | – | – | EC50 [2]: 2.21 µM (active); EC50 [3]: > 60 µM (not active)
30 | N#Cc1ccccc1-c1ccc2ncnc(NCc3cccnc3)c2c1 | – | – | 2 µM (inconclusive) | –
